Data on one compound can be found in patent publication US10077237B2 (Sanofi, priority 2013, dated 2018).

The assay concerns the target T1, recombinant human AMPK complex, containing α2β1γ2 (Homo sapiens, UniProt P54646+Q9Y478).
T1 construct: hsAMPKα2-552-His, hsAMPKβ1-2-270 and hsAMPKγ-2-569 respectively; hsAMPKβ1-2-270; hsAMPKγ-2-569; His (C); made in house; host or cells: Spodoptera frugiperda Sf21 (baculovirus)
The assay is described as follows: AMPK in vitro activation assay (HTRF). It counts as biochemical. An outline of the steps: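 HTRF phosphorylation read-out (Eu-cryptate anti-pS133-CREB, streptavidin-XL665) after a 45 min, 37° C kinase step. This step was initiated by a solution with 200 μM ATP and 2 or 0.08 μM biotinylated ACC-CREBp peptide. Beforehand, compound sat 30 min at room temperature with baculovirus/Sf21 α2β1γ2 in pH 7.0 HEPES buffer; EC50 derived from activation over basal.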

SMILES strings stand for the structures.

T1 sequence (P54646 2-552): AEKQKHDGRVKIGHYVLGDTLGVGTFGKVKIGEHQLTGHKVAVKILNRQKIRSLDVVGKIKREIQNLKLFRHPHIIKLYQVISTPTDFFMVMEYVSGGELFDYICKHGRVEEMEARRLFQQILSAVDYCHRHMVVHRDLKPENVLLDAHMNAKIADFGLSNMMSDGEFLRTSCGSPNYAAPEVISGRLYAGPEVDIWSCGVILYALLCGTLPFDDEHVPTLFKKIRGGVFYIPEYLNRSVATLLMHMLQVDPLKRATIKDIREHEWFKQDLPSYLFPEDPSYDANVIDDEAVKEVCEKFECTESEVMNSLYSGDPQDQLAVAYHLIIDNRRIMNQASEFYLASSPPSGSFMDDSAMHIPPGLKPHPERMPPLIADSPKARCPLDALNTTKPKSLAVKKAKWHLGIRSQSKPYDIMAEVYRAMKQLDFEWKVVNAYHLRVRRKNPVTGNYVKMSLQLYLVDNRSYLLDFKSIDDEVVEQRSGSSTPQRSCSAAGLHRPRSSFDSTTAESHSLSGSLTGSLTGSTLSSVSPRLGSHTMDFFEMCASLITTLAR
T1 sequence (Q9Y478 2-270): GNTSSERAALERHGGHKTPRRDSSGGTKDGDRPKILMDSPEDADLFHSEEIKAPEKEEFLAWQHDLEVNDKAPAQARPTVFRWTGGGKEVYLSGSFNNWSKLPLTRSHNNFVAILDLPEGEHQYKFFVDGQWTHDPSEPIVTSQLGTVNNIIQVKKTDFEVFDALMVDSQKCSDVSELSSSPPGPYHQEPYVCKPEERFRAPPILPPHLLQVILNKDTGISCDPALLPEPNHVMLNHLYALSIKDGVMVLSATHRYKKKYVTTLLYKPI
T1 sequence (Q9UGJ0 2-569 partner limits assumed): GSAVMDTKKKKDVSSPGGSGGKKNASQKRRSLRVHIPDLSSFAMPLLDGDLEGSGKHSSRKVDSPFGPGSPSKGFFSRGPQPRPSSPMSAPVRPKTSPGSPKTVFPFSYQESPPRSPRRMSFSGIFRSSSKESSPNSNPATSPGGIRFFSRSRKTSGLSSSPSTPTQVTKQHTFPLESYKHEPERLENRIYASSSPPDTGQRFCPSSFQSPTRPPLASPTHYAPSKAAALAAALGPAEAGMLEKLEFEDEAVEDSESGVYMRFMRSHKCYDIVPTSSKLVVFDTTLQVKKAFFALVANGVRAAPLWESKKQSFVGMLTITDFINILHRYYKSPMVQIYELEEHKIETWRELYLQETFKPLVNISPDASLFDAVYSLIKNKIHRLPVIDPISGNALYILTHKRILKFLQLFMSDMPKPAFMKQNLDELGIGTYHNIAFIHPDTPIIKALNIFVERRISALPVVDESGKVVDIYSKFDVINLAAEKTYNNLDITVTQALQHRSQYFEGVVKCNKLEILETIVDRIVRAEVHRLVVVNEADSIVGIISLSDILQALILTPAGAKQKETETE

Turning to `COc1cnccc1C(O)=C1C(=O)Nc2cc(Cl)c(-c3ccc(C4(CO)CC4)cc3)cc21` [Compound 175, 6-chloro-3-[hydroxy-(3-methoxy-4-pyridyl)methylene]-5-[4-[1-(hydroxymethyl)cyclopropyl]phenyl]indolin-2-one], the EC50 (HTRF, recombinant human α2β1γ2 AMPK, 200 μM ATP, biotinylated ACC-CREBp peptide, repeat determinations on separate lines) amounted to 2 nM. The Emax (potentiation of AMPK activity as percent over the basal signal (without compound)) was determined as 198%.
